Laboratory results from US8795742B2 (priority 2006, dated 2014).

System: H5 serum type avian influenza virus
Design: species or system yellow chicken
Conditions: in vivo

SMILES: CC(N)C12CC3CC(CC(C3)C1)C2 (stereo not drawn) [Group C, Rimantadine]
- Effective rate: 42.5%
- Number of death: 23
- Rate of death: 57.5%
